Read-outs that look alike come from different tables or passages of the source. Marks after values point to notes of the source that are not given here.
Experiments:
[1] = Antimicrobial residue concentration and depletion in blood (serum) of treated pigs within the withdrawal period (LC-MS/MS); type: in vivo; conditions: for half-life: both sexes, intramuscular, T1/2=Ln(2)/λz, read-out: T1/2 half-life of elimination (BLOOD) (converted); for half-life / Slope (BLOOD): pig blood serum; for Maximum concentration value in Blood / Minimum concentration value in Blood: over the sample bank of treated piglets; for Slope (BLOOD): regression of concentration over the withdrawal period, deep intramuscular treatment; for Time until levels reached the detection limit (DL) in blood: DL 10 µg/kg
Source text: To obtain samples containing antimicrobial compounds administered in vivo, 93 piglets (62 female, 31 male) with an average weight of 43.00 ± 12.79 kg were provided at treatment onset. These piglets were untreated animals that remained on the premises of the Faculty of Veterinary Sciences at the University of Zaragoza (Zaragoza, Spain) 40 days before administration of the compounds. Both during the acclimatization and withdrawal periods, animals were fed ad libitum with a special mixed feed that was free of antibiotics ([…], Spain), and water was provided from a separated, controlled water circuit. Piglets were raised in separate pens depending on the antibiotic administrated. After administration, animals were slaughtered at preset intervals within the withdrawal period in order to obtain samples containing different antimicrobial concentrations above and below the MRLs for muscle. Figure S1 indicates the slaughter days and the withdrawal periods set by the manufacturer for each antimicrobial compound administered. Between one and three piglets were slaughtered on the same day post-administration. The day of slaughter was calculated from the first day after the last antimicrobial treatment dose. […] Apart from samples containing antimicrobial compounds administered in vivo, and as a part of the sample bank, 15 of the 93 piglets were slaughtered after the acclimatization period and before treatment onset. Animals were stunned and slaughtered following the guidelines established by European Council Regulation (EC) No. 1099/2009 [39] regarding the protection of animals at the time of slaughter or killing. A penetrative captive bolt gun was used to stun the pigs, positioning it firmly against the skin, in the middle of the forehead, 2 cm above the line of the eyes, aiming towards the tail. This was followed by complete exsanguination carried out by incision in the jugular furrow at the base of the neck to sever all the major blood vessels arising from the heart. The samples obtained from them were used as blank samples for analysis. Blood was collected not only from slaughtered animals, but also from living animals on each day of slaughter. […] For quinolones in blood serum samples, a LC-MS/MS method was set up using a SCIEX Exion LC coupled to TripleQuad 6500+ triple quadrupole detector equipped with an Acquity Ultra Performance Liquid Chromatography Ethylene Bridged Hybrid (UPLC BEH) C18 (1.7 μm, 2.1 × 100 mm) column. Mobile phase consisted of eluent A: 0.1% formic acid in water, and eluent B: 0.1% formic acid in acetonitrile at a flow rate of 0.4 mL/min. […] Injected volume was 5 μL. Analytes were detected using positive electrospray ionization (ESI+) in multiple reaction monitoring (MRM) mode, and two transitions were monitored for each compound of interest (Table S4). […] The same mobile phase and gradient conditions as in SCIEX instruments were applied. […] Two ESI+ MRM transitions were monitored for each compound (Table S5). […] Results were represented as the mean ± standard deviation using the PRISM program (GraphPad Software, Inc., San Diego, USA). The rates of elimination (λz) of antibiotics from muscle and blood were determined by regression analysis. The corresponding half-lives of elimination were calculated according to the following equation: Half-life of elimination.

[2] = Antimicrobial residue concentration and depletion in muscle of treated pigs within the withdrawal period (LC-MS/MS or HPLC-FLD); type: in vivo; conditions: for half-life: both sexes, T1/2=Ln(2)/λz, read-out: T1/2 half-life of elimination (MUSCLE) (converted); for half-life / concentration at 2 day of withdrawal period / concentration at 3 day of withdrawal period / concentration at 4 day of withdrawal period / concentration at 7 day of withdrawal period / concentration at 15 day of withdrawal period: intramuscular; for concentration at 2 day of withdrawal period: withdrawal period Day 2, pig; for concentration at 3 day of withdrawal period: withdrawal period Day 3, pig; for Maximum concentration value in Muscle / Minimum concentration value in Muscle: over the sample bank of treated piglets; for Time until levels reached the detection limit (DL) in muscle: DL 10 µg/kg; for Slope (MUSCLE): regression of concentration over the withdrawal period, deep intramuscular treatment; for concentration at 4 day of withdrawal period: withdrawal period Day 4, pig; for concentration at 7 day of withdrawal period: withdrawal period Day 7, pig; for concentration at 15 day of withdrawal period: withdrawal period Day 15, pig
Source text: To obtain samples containing antimicrobial compounds administered in vivo, 93 piglets (62 female, 31 male) with an average weight of 43.00 ± 12.79 kg were provided at treatment onset. These piglets were untreated animals that remained on the premises of the Faculty of Veterinary Sciences at the University of Zaragoza (Zaragoza, Spain) 40 days before administration of the compounds. Both during the acclimatization and withdrawal periods, animals were fed ad libitum with a special mixed feed that was free of antibiotics ([…], Spain), and water was provided from a separated, controlled water circuit. Piglets were raised in separate pens depending on the antibiotic administrated. After administration, animals were slaughtered at preset intervals within the withdrawal period in order to obtain samples containing different antimicrobial concentrations above and below the MRLs for muscle. Figure S1 indicates the slaughter days and the withdrawal periods set by the manufacturer for each antimicrobial compound administered. Between one and three piglets were slaughtered on the same day post-administration. The day of slaughter was calculated from the first day after the last antimicrobial treatment dose. […] Apart from samples containing antimicrobial compounds administered in vivo, and as a part of the sample bank, 15 of the 93 piglets were slaughtered after the acclimatization period and before treatment onset. Animals were stunned and slaughtered following the guidelines established by European Council Regulation (EC) No. 1099/2009 [39] regarding the protection of animals at the time of slaughter or killing. A penetrative captive bolt gun was used to stun the pigs, positioning it firmly against the skin, in the middle of the forehead, 2 cm above the line of the eyes, aiming towards the tail. This was followed by complete exsanguination carried out by incision in the jugular furrow at the base of the neck to sever all the major blood vessels arising from the heart. The samples obtained from them were used as blank samples for analysis. […] Samples were immediately frozen at -20 °C until analysis. For HPLC-FLD analyses, matrix solid phase dispersion (MSPD) was used. A total of 1.00 ± 0.01 g of tissue was weighed. Internal quality control samples were spiked at this point. […] It was introduced into a 25 mL reservoir and compacted. Clean-up was made with 8 mL of hexane, and quinolones were eluted with 15 mL acetonitrile/methanol (1:1) acidified with acetic acid 1%. […] The extraction procedure for LC-MS/MS determination was based on Chico et al.. […] All samples were spiked with IS at this point, and calibrants and internal quality control samples were prepared by spiking the corresponding amount of standard working solution. A total of 200 μL of 0.1 M EDTA was added, followed by 10 mL of 70% methanol, and samples were vortexed for 30 s, swung for 15 min, and finally centrifuged at 4500 rcf for 10 min at a temperature below 10 °C (Heraeus Multifuge X3 FR, Heraeus, Hanau, Germany). Then, 500 μL of supernatant was collected and diluted by adding 1500 μL of water. Extracts were filtered through 0.2 μm pore filters directly into LC-MS/MS vials. […] Mobile phase consisted of eluent A: phosphoric acid with trimethylamine buffer (pH = 3), and eluent B: acetonitrile, in isocratic mode (21:79) with a flow rate of 1 mL/min. Injected volume was 50 μL. […] The same mobile phase and gradient conditions as in SCIEX instruments were applied. Injected volume was 10 μL. Two ESI+ MRM transitions were monitored for each compound (Table S5). […] Results were represented as the mean ± standard deviation using the PRISM program (GraphPad Software, Inc., San Diego, USA). The rates of elimination (λz) of antibiotics from muscle and blood were determined by regression analysis. […]

[3] = cited from earlier work; for Suppression Period (withdrawal period set by the manufacturer): commercial product, deep intramuscular, ref manufacturer; for MRLs: muscle, ref Regulation (EEC) No. 2377/90
[4] = set-up: method as in earlier work; conditions: cited from earlier work
[5] = forequarter muscle, read-out: Concentration in Forequarters
[6] = hindquarter muscle, read-out: Concentration in Hindquarters
[7] = loin muscle, read-out: Concentration in Loins

half-life [1]	Maximum concentration value in Blood [1]	Minimum concentration value in Blood [1]	Slope (BLOOD) [1]	Time until levels reached the detection limit (DL) in blood ([1]; pig blood)	half-life ([2]; pig muscle)	concentration at 2 day of withdrawal period [2, 5]	concentration at 2 day of withdrawal period [2, 6]	concentration at 2 day of withdrawal period [2, 7]	Maximum concentration value in Muscle [2]	Minimum concentration value in Muscle [2]	Time until levels reached the detection limit (DL) in muscle ([2]; pig muscle)	Slope (MUSCLE) ([2]; pig muscle)	SMILES	Suppression Period (withdrawal period set by the manufacturer) [3]	MRLs [3]	also measured
45.6 h	448.50 ± 2.12 µg/kg	21.67 ± 1.15 µg/kg	−0.2213 ± 0.01639 ^b	8 days after inoculation	22.1 h	374 ± 4.73 ng/g	387 ± 8.5 ng/g	383 ± 2 ng/g	1858.00 ± 156.37 µg/kg	18.00 ± 2.65 µg/kg	7 days after inoculation	−0.3289 ± 0.01929 ^a	CCN1CCN(c2cc3c(cc2F)c(=O)c(C(=O)O)cn3C2CC2)CC1 [Enrofloxacin, enrofloxacin]			concentration at 3 day of withdrawal period [2, 5]: 990.5 ± 3.54 ng/g; concentration at 3 day of withdrawal period [2, 6]: 1075 ± 1.41 ng/g; concentration at 3 day of withdrawal period [2, 7]: 1060 ± 2.12 ng/g
86.2 h	615.00 ± 204.47 µg/kg	24.00 ± 1.73 µg/kg	−0.08879 ± 0.007069 ^a	25 days after inoculation	82.3 h				1005.33 ± 55.47 µg/kg	31.33 ± 3.21 µg/kg	26 days after inoculation	−0.08784 ± 0.005403 ^a	CN(C)[C@@H]1C(O)=C(C(N)=O)C(=O)[C@@]2(O)C(O)=C3C(=O)c4c(O)cccc4[C@@](C)(O)[C@H]3[C@H](O)[C@@H]12 [Oxytetracycline, oxytetracycline]	28 days	100 µg/kg	concentration at 4 day of withdrawal period [2, 5]: 971 ± 53.3 ng/g; concentration at 7 day of withdrawal period [2, 5]: 411 ± 27.5 ng/g; concentration at 15 day of withdrawal period [2, 5]: 99.7 ± 6.51 ng/g; concentration at 4 day of withdrawal period [2, 6]: 1010 ± 55.5 ng/g; concentration at 7 day of withdrawal period [2, 6]: 383 ± 45.9 ng/g; concentration at 15 day of withdrawal period [2, 6]: 100 ± 16 ng/g; concentration at 4 day of withdrawal period [2, 7]: 905 ± 118 ng/g; concentration at 7 day of withdrawal period [2, 7]: 383 ± 12.9 ng/g; concentration at 15 day of withdrawal period [2, 7]: 125 ± 15.7 ng/g; Share of the dose eliminated in the feces [4]: 40%; Share of the dose eliminated in urine via glomerular filtration [4]: 60%
	73.00 ± 6.24 µg/kg	19.00 ± 1.00 µg/kg				20.7 ± 1.15 ng/g	25.3 ± 6.43 ng/g	149 ± 8.54 ng/g	307.00 ± 10.39 µg/kg	13.33 ± 2.52 µg/kg			CC1(C)S[C@@H]2[C@H](NC(=O)[C@H](N)c3ccc(O)cc3)C(=O)N2[C@H]1C(=O)O [Amoxicillin, amoxicillin]	25 days	50 µg/kg	Time at which blood amounts were close to the MRL ([1]; pig blood, MRL 50 µg/kg): first day of the withdrawal period; Concentration in loins compared with forequarters and hindquarters ([2]; pig muscle groups, Table S1): over seven times higher; Time at which muscle amounts were close to the MRL ([2]; pig muscle, MRL 50 µg/kg): first day of the withdrawal period
